Data on 23 compounds can be found in patent US20250213555A1, “SUBSTITUTED TETRAHYDROFURAN ANALOGS AS MODULATORS OF SODIUM CHANNELS” (VERTEX PHARMACEUTICALS INCORPORATED, priority 2021, published 2025).

Bounds are passed on as bounds.

In this experiment the target is human Nav 1.8 (Homo sapiens, UniProt Q9Y5Y9). As to the kind of experiment: E-VIPR assay detecting and measuring Nav inhibition properties. It is filed as cell-based. To be noted: HEK cells expressing a truncated form of human Nav 1.8; compound numbers without "*" (not marked as run in the presence of human serum); read-out: measured IC50 value in the E-VIPR Assay. The method, boiled down: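 Nav inhibition was read by E-VIPR: cells were electrically stimulated while coumarin/oxonol FRET emissions were recorded. Cells were HEK expressing a truncated human Nav 1.8 and co-transduced with KIR2.1, and were assayed in 25% final human serum.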
Sequence of human Nav 1.8 (Q9Y5Y9 126-399 limits assumed): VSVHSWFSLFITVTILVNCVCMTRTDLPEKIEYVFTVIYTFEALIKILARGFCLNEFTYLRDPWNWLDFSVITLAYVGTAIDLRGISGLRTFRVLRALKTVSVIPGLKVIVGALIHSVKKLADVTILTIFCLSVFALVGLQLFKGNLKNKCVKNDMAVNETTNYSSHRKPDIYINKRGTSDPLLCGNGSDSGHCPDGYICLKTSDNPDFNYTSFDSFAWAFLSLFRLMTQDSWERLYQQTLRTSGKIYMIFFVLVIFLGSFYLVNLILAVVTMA
Sequence of human Nav 1.8 (Q9Y5Y9 660-890 limits assumed): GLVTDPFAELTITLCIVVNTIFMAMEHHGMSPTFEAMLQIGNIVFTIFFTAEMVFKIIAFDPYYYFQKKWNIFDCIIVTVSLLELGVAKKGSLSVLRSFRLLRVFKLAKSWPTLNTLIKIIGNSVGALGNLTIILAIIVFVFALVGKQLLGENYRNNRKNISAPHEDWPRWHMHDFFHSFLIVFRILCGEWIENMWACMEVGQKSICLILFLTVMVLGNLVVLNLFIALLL
Sequence of human Nav 1.8 (Q9Y5Y9 1148-1722 limits assumed): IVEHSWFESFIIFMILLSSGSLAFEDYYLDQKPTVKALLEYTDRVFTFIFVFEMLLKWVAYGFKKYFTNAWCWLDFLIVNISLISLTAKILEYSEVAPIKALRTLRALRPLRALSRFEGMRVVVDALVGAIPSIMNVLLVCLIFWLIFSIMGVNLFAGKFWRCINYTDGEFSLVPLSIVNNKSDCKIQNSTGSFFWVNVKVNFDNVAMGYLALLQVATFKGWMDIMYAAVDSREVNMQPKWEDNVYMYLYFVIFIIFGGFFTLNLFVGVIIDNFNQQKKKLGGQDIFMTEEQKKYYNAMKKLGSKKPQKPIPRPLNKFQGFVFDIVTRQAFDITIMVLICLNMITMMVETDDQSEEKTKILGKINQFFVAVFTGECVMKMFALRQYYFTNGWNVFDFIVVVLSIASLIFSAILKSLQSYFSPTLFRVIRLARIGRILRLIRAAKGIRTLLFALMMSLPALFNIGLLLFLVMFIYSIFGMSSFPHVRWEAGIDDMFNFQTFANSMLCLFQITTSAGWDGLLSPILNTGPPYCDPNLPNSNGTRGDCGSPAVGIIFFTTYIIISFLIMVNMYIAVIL
The term IC50 denotes the midpoint of a concentration-inhibition curve. With `C[C@H]1[C@@H](c2ccc(F)c(F)c2OCCN2CC[C@H](F)C2)[C@H](C(=O)Nc2ccnc(C(N)=O)c2)O[C@@]1(C)C(F)(F)F` [Compound 49, 4-((2R,3S,4S,5R)-3-(3,4-difluoro-2-(2-((S)-3-fluoropyrrolidin-1-yl)ethoxy)phenyl)-4,5-dimethyl-5-(trifluoromethyl)tetrahydrofuran-2-carboxamido)picolinamide], the half-inhibitory concentration (IC50) was in the range of 10 to 100 nM. Turning to `Cc1cnc(C(N)=O)cc1NC(=O)[C@@H]1O[C@@](C)(C(F)(F)F)[C@@H](C)[C@H]1c1ccc(F)c(F)c1OCCN1CC2(COC2)C1` [Compound 181, 4-((2R,3S,4S,5R)-3-(2-(2-(2-oxa-6-azaspiro[3.3]heptan-6-yl)ethoxy)-3,4-difluorophenyl)-4,5-dimethyl-5-(trifluoromethyl)tetrahydrofuran-2-carboxamido)-5-methylpicolinamide], the IC50 lay within 10 to 100 nM. For `CNC(=O)c1cc(NC(=O)[C@@H]2O[C@@](C)(C(F)(F)F)[C@@H](C)[C@H]2c2ccc(F)c(F)c2O[C@H]2C[C@@H](O)C2)ccn1` [Compound 201] the value was 10 to 100 nM; for `COC[C@H]1CN(C(=O)c2cc(NC(=O)[C@@H]3O[C@@](C)(C(F)(F)F)[C@@H](C)[C@H]3c3ccc(F)c(F)c3OC)ccn2)CCN1` [Compound 248, (2R,3S,4S,5R)-3-(3,4-difluoro-2-methoxyphenyl)-N-(2-((R)-3-(methoxymethyl)piperazine-1-carbonyl)pyridin-4-yl)-4,5-dimethyl-5-(trifluoromethyl)tetrahydrofuran-2-carboxamide], less than 10 nM; for `COc1c([C@H]2[C@H](C(=O)Nc3ccnc(C(=O)N4CCNC(C)(C)C4)c3)O[C@@](C)(C(F)(F)F)[C@H]2C)ccc(F)c1F` [Compound 241, (2R,3S,4S,5R)-3-(3,4-difluoro-2-methoxyphenyl)-N-(2-(3,3-dimethylpiperazine-1-carbonyl)pyridin-4-yl)-4,5-dimethyl-5-(trifluoromethyl)tetrahydrofuran-2-carboxamide], less than 10 nM. Turning to `C[C@H]1[C@@H](c2ccc(F)c(F)c2OC2CC(F)(F)C2)[C@H](C(=O)Nc2ccnc(C(N)=O)c2)O[C@@]1(C)C(F)(F)F` [Compound 173, 4-((2R,3S,4S,5R)-3-(2-(3,3-difluorocyclobutoxy)-3,4-difluorophenyl)-4,5-dimethyl-5-(trifluoromethyl)tetrahydrofuran-2-carboxamido)picolinamide], the half-maximal inhibitory concentration (IC50) is less than 10 nM.

As for `COc1c([C@H]2[C@H](C(=O)Nc3ccnc(C(=O)N4C[C@@H](N)[C@@H](OC)C4)c3)O[C@@](C)(C(F)(F)F)[C@H]2C)ccc(F)c1F` [Compound 261, (2R,3S,4S,5R)-N-(2-((3R,4S)-3-amino-4-methoxypyrrolidine-1-carbonyl)pyridin-4-yl)-3-(3,4-difluoro-2-methoxyphenyl)-4,5-dimethyl-5-(trifluoromethyl)tetrahydrofuran-2-carboxamide], the IC50 is less than 10 nM. Turning to `CNCCOc1c([C@H]2[C@H](C(=O)Nc3ccnc(C(N)=O)c3)O[C@@](C)(C(F)(F)F)[C@H]2C)ccc(F)c1F` [Compound 114, 4-((2R,3S,4S,5R)-3-(3,4-difluoro-2-(2-(methylamino)ethoxy)phenyl)-4,5-dimethyl-5-(trifluoromethyl)tetrahydrofuran-2-carboxamido)picolinamide], the IC50 lay in the range of 10 to 100 nM. As to `COc1c([C@H]2[C@H](C(=O)Nc3ccnc(C(=O)N(C)[C@@H]4CCNC4)c3)O[C@@](C)(C(F)(F)F)[C@H]2C)ccc(F)c1F` [Compound 229, 4-((2R,3S,4S,5R)-3-(3,4-difluoro-2-methoxyphenyl)-4,5-dimethyl-5-(trifluoromethyl)tetrahydrofuran-2-carboxamido)-N-methyl-N-((R)-pyrrolidin-3-yl)picolinamide], the half-maximal inhibitory concentration (IC50) was less than 10 nM. As for `C[C@H]1[C@@H](c2ccc(F)c(F)c2OCc2cncn2C)[C@H](C(=O)Nc2ccnc(C(N)=O)c2)O[C@@]1(C)C(F)(F)F` [Compound 89, 4-((2R,3S,4S,5R)-3-(3,4-difluoro-2-((1-methyl-1H-imidazol-5-yl)methoxy)phenyl)-4,5-dimethyl-5-(trifluoromethyl)tetrahydrofuran-2-carboxamido)picolinamide], the IC50 was less than 10 nM.

In the case of `COc1c([C@H]2[C@H](C(=O)Nc3ccnc(C(=O)N4C[C@H](N)[C@H](OC)C4)c3)O[C@@](C)(C(F)(F)F)[C@H]2C)ccc(F)c1F` [Compound 257, (2R,3S,4S,5R)-N-(2-((3S,4R)-3-amino-4-methoxypyrrolidine-1-carbonyl)pyridin-4-yl)-3-(3,4-difluoro-2-methoxyphenyl)-4,5-dimethyl-5-(trifluoromethyl)tetrahydrofuran-2-carboxamide], the half-maximal inhibitory concentration (IC50) was less than 10 nM. As for `COc1c([C@H]2[C@H](C(=O)Nc3ccnc(C(=O)N4C[C@@H](N)[C@H](F)C4)c3)O[C@@](C)(C(F)(F)F)[C@H]2C)ccc(F)c1F` [Compound 258, (2R,3S,4S,5R)-N-(2-((3R,4R)-3-amino-4-fluoropyrrolidine-1-carbonyl)pyridin-4-yl)-3-(3,4-difluoro-2-methoxyphenyl)-4,5-dimethyl-5-(trifluoromethyl)tetrahydrofuran-2-carboxamide], the 50% inhibitory concentration (IC50) was less than 10 nM.

In the case of `C[C@H]1[C@@H](c2ccc(F)c(F)c2OCC(=NO)C2CCC2)[C@H](C(=O)Nc2ccnc(C(N)=O)c2)O[C@@]1(C)C(F)(F)F` [Compound 191, 4-((2R,3S,4S,5R)-3-(2-(2-cyclobutyl-2-(hydroxyimino)ethoxy)-3,4-difluorophenyl)-4,5-dimethyl-5-(trifluoromethyl)tetrahydrofuran-2-carboxamido)picolinamide], the half-maximal inhibitory concentration (IC50) is less than 10 nM. Consider `COc1c([C@H]2[C@H](C(=O)Nc3ccnc(C(N)=O)c3)O[C@@](C)(C(F)(F)F)[C@H]2C)ccc(OCC2CC2)c1F` (single isomer, unassigned) [Compound 144], for which the IC50 is less than 10 nM.

Consider `CC(=O)C1CC(Oc2c([C@H]3[C@H](C(=O)Nc4ccnc(C(N)=O)c4)O[C@@](C)(C(F)(F)F)[C@H]3C)ccc(F)c2F)C1` (stereo partly drawn) [Compound 170, 4-((2R,3S,4S,5R)-3-(2-(3-acetylcyclobutoxy)-3,4-difluorophenyl)-4,5-dimethyl-5-(trifluoromethyl)tetrahydrofuran-2-carboxamido)picolinamide], for which the half-inhibitory concentration (IC50) is less than 10 nM. In the case of `COc1c([C@H]2[C@H](C(=O)Nc3ccnc(C(=O)N[C@@H]4CNC[C@H](C)C4)c3)O[C@@](C)(C(F)(F)F)[C@H]2C)ccc(F)c1F` [Compound 252, 4-((2R,3S,4S,5R)-3-(3,4-difluoro-2-methoxyphenyl)-4,5-dimethyl-5-(trifluoromethyl)tetrahydrofuran-2-carboxamido)-N-((3S,5R)-5-methylpiperidin-3-yl)picolinamide], the IC50 is 10 to 100 nM. Regarding `C[C@@H]1COCCN1CCOc1c([C@H]2[C@H](C(=O)Nc3ccnc(C(N)=O)c3)O[C@@](C)(C(F)(F)F)[C@H]2C)ccc(F)c1F` [Compound 56, 4-((2R,3S,4S,5R)-3-(3,4-difluoro-2-(2-((R)-3-methylmorpholino)ethoxy)phenyl)-4,5-dimethyl-5-(trifluoromethyl)tetrahydrofuran-2-carboxamido)picolinamide], the IC50 is less than 10 nM. With `COc1c([C@H]2[C@H](C(=O)Nc3ccnc(C(=O)N4CCN[C@H](C)C4)c3)O[C@@](C)(C(F)(F)F)[C@H]2C)ccc(F)c1F` [Compound 249, (2R,3S,4S,5R)-3-(3,4-difluoro-2-methoxyphenyl)-4,5-dimethyl-N-(2-((R)-3-methylpiperazine-1-carbonyl)pyridin-4-yl)-5-(trifluoromethyl)tetrahydrofuran-2-carboxamide], the IC50 is less than 10 nM. Consider `COc1c([C@H]2[C@H](C(=O)Nc3ccnc(C(=O)N4C[C@H]5C[C@@H]4CN5C)c3)O[C@@](C)(C(F)(F)F)[C@H]2C)ccc(F)c1F` [Compound 279, (2R,3S,4S,5R)-3-(3,4-difluoro-2-methoxyphenyl)-4,5-dimethyl-N-(2-((1R,4R)-5-methyl-2,5-diazabicyclo[2.2.1]heptane-2-carbonyl)pyridin-4-yl)-5-(trifluoromethyl)tetrahydrofuran-2-carboxamide], for which the IC50 fell in the range of 10 to 100 nM. On to `COc1c([C@H]2[C@H](C(=O)Nc3ccnc(C(=O)N4CCO[C@H]5CN(C)C[C@H]54)c3)O[C@@](C)(C(F)(F)F)[C@H]2C)ccc(F)c1F` [Compound 282, (2R,3S,4S,5R)-3-(3,4-difluoro-2-methoxyphenyl)-4,5-dimethyl-N-(2-((4aR,7aS)-6-methyloctahydropyrrolo[3,4-b][1,4]oxazine-4-carbonyl)pyridin-4-yl)-5-(trifluoromethyl)tetrahydrofuran-2-carboxamide], for which the IC50 is less than 10 nM. As to `C[C@@H](O)COc1c([C@H]2[C@H](C(=O)Nc3ccnc(C(N)=O)c3)O[C@@](C)(C(F)(F)F)[C@H]2C)ccc(F)c1F` [Compound 152, 4-((2R,3S,4S,5R)-3-(3,4-difluoro-2-((R)-2-hydroxypropoxy)phenyl)-4,5-dimethyl-5-(trifluoromethyl)tetrahydrofuran-2-carboxamido) picolinamide], the concentration for half-maximal inhibition (IC50) lay in the range of 10 to 100 nM.

For the compound `COc1c([C@H]2[C@H](C(=O)Nc3ccnc(C(=O)N4C[C@@H](C)NC[C@H]4C)c3)O[C@@](C)(C(F)(F)F)[C@H]2C)ccc(F)c1F` [Compound 250, (2R,3S,4S,5R)-3-(3,4-difluoro-2-methoxyphenyl)-N-(2-((2R,5R)-2,5-dimethylpiperazine-1-carbonyl)pyridin-4-yl)-4,5-dimethyl-5-(trifluoromethyl)tetrahydrofuran-2-carboxamide], the IC50 is less than 10 nM. `COc1c([C@H]2[C@H](C(=O)Nc3ccnc(C(=O)N4CCC(N(C)C)C4)c3)O[C@@](C)(C(F)(F)F)[C@H]2C)ccc(F)c1F` (single isomer, unassigned) [Compound 264, rel-(2R*,3S*,4S*,5R*)-3-(3,4-difluoro-2-methoxyphenyl)-N-(2-(3-(dimethylamino)pyrrolidine-1-carbonyl)pyridin-4-yl)-4,5-dimethyl-5-(trifluoromethyl)tetrahydrofuran-2-carboxamide]: the IC50 was less than 10 nM.
